# Data taken from patent US10743535B2, “Insecticide for flight-capable pests” (H&K SOLUTIONS LLC, priority 2017, dated 2020).
# Key:
# lanternfly = settings: in vivo; cited from earlier work
# bees = settings: perhaps contributing to the collapse of bee colonies; cited from earlier work
# [1] = tested on: spotted lanternflies (lycorma delicatula); assay: formulations sprayed on lantern flies to test lethality; assay type: in vivo; settings: applied by spraying the top of the insect; lethal = the insect dies within 10 minutes
# Protocol: The concentration of menthol in the insecticide should be sufficient such that it is lethal to the insect. As used herein, the term “lethal” means that, once applied by spraying the top of the insect, the insect dies within 10 minutes. Those of skill in the art can determine a lethal dose of menthol without undue experimentation. Although higher doses tend to result in a shorter kill time, given the expense of menthol, it is generally preferred to minimize its concentration to achieve a sufficient kill time, i.e., less than 10 minutes and preferably less than 2 minutes, and more preferably less than 1 minute.
# The following nonlimiting examples illustrate the effectiveness of the insecticide of the present invention. […] In all cases, the formulations were applied to lantern flies to test the effectiveness of the particular formulation, and, in all cases, the formulations were lethal as defined in this application.
# Again, in all cases, the formulations were applied to lantern flies to test the effectiveness of the particular formulation, and, in all cases, the formulation were lethal as defined in this application.
SMILES,shown to be effective in exterminating the lanternfly (lanternfly),time to kill the lanternfly (lanternfly),effect on bees (bees),lethal to lanternfly [1]
CC1(C)C(C=C(Cl)Cl)C1C(=O)OCc1cccc(Oc2ccccc2)c1 (centres unmarked) [Permethrin],effective,–,–,–
CN/C(=N/CC1CCOC1)N[N+](=O)[O-] (centres unmarked) [Dinotefuran],effective,hours,detrimental,–
CC1CCC(C(C)C)C(O)C1 (centres unmarked) [menthol],–,–,–,lethal
